Assay results published in patent US20180369264A1, “COMBINATION OF A CARDIAC STEROID AND AN AKT INHIBITOR FOR THE TREATMENT OF CARDIOVASCULAR DISEASES AND DISORDERS” (YISSUM RESEARCH DEVELOPMENT COMPANY OF THE HEBREW …, priority 2015, published 2018).

Experiments:
[1] = test system: adult acc mutant primary cardiomyocytes; experiment: acc mutant primary cardiomyocyte contractility; type: cell-based, zebrafish; conditions: for amplitude of contractility: 0.1 nM ouabain or 1 nM MK-2206 alone; for Amplitude / Contraction Rate (−dv/dt) / Relaxation Rate (+dv/dt): Acc mutant, 0.1 nM Oua, 1 nM MK, 20 minutes, 0.5 Hz
Experimental: Adult (4 to 12-month-old) ventricular myocytes were obtained by enzymatic dissociation (with collagenase II and IV, at 5 mg/ml, each). The zebrafish were stunned by a blow to the head and the brain was pithed. The heart was quickly removed and placed in a small Petri dish containing 10 ml isolation solution: 100 mM NaCl, 10 mM KCl, 1.2 mM KH2PO4, 4 mM MgSO4, 50 mM taurine, 20 mM glucose, and 10 mM Hepes, pH 6.9. The ventricle was cut free from the bulbus and atrium under a binocular. Ventricles from 3 fish were incubated for 45 minutes at 32° C. in a solution containing perfusion buffer (150 mM NaCl, 5.4 mM KCl, 1.5 mM MgSO4, 0.4 mM NaH2PO4, 2 mM CaCl2, 10 mM glucose, and 10 mM Hepes, pH 7.7). Collagenases II and IV (Gibco, NY, USA, 5 mg/ml each) and additional CaCl2 (2.012 mM final concentration) were added. Following Eppendorf centrifugation (1 minute, 250×g at room temperature) the precipitated cells were suspended in 1 ml perfusion buffer for 30 minutes at room temperature before use.
Cells were transferred to a chamber with a quartz base and examined using an inverted epifluorescence microscope (Nikon Diaphot 200, Japan). The myocytes were field-stimulated (0.5 Hz, 70 V, square waves) and contractions were measured using a video motion edge detector (Crescent Electronics, Sandy, Utah, USA) at the rate of 5 Hz. Cardiomyocyte performance was calculated as the percentage of resting cell length. The slopes of contraction and relaxation (+dL/dt and −dL/dt) were calculated from the linear portions of the changes in contractility. 9 cells per each group were measured. Each of the experiments was repeated at least 3 times with identical results.

[2] = test system: Ca^2+ transients in wt zebrafish isolated adult heart; experiment: Ca^2+ transients in wt zebrafish isolated adult heart; conditions: for Amplitude (Maximal deflection from baseline) / Area (Area under the transient relative to baseline) / Decay slope (−Δ Fluorescence in the linear phase/sec) / Rate / Rise slope (+Δ Fluorescence in the linear phase/sec): Ouabain 200 μM, MK-2206 1 nM
Experimental: (§1) Spontaneous Ca^2+ transients were measured in isolated hearts from adult zebrafish. The zebrafish were stunned by a blow to the head and the hearts were removed quickly and placed in Dulbecco's Modified Eagle's Medium (DMEM) containing 10% Fetal Bovine Serum (FBS) at room temperature. A total 3-5 hearts were placed in a small Petri dish containing 100 μl Krebs-Ringer's solution (119 mM NaCl, 2.5 mM KCl, 1 mM NaH2PO4, 2.5 mM CaCl2, 1.3 mM MgCl2, 20 mM HEPES and 11 mM D-glucose) with 0.01 mM Fura-2 AM (Biotium, Inc., CA, USA) in DMEM-FBS. Following incubation for 10 min (37° C., 5% CO2), 150 μl of Krebs-Ringer's solution were added to the Petri dish which was incubated for an additional 30 minutes. The dye was removed from the solution by two incubations (10 minutes each, room temperature) in DMEM-FBS solution. Intracellular Ca^2+ transients were measured in stabilizing medium containing 1% low-melt agarose in Krebs-Ringer's solution. The hearts were kept for 30 minutes in the presence of MK-2206 (or saline) and then underwent excitation/emission cycles for 2 minutes at 340 and 380 nm with 510 nm emission using a PTI fluorimetric system (Photon Technology International, Madison, USA). Ouabain was then added and the excitation/emission cycles were monitored for 8 minutes. The Ca^2+ levels are presented as the ratio of 340/380 nm fluorescence emission.

[3] = type: in vivo, rat; conditions: 10 day post MI
Experimental: Male Wister rats (150-175 g body weight) were used. Left anterior descending artery (LAD)-ligation was performed in all animals. […] All injected solutions contained 9% DMSO. Heart contractility in-vivo was monitored using echocardiography. At the end of the treatment period, animals were sacrificed and heart and blood samples were harvested for analysis. Blood samples were also collected (from the eye) at baseline and 24 hours post myocardial infarction (MI).
Blood samples were collected from rat eye at baseline and at 24 hrs. Post LAD-ligation. The plasmas of 11 animals were tested for the indicated biomarkers of MI.

[4] = test system: Ca^2+ transients in acc mutant zebrafish isolated adult heart; experiment: Ca^2+ transients in acc mutant zebrafish isolated adult heart; conditions: for Amplitude (Maximal deflection from baseline) / Area (Area under the transient relative to baseline) / Decay slope (−Δ Fluorescence in the linear phase/sec) / Rate / Rise slope (+Δ Fluorescence in the linear phase/sec): Acc mutant, Ouabain 200 μM, MK-2206 1 nM
Experimental: as §1

[5] = test system: Akt; experiment: Akt phosphorylation in adult zebrafish heart (Western blot); type: in vivo; conditions: wt adult zebrafish, 1 μM in swimming media, 5 minutes
Experimental: (§2) Adult zebrafish (˜12-months-old) were transferred to swimming medium containing 1 μM of CS drugs, as specified in the following examples. At various time points (5-30 min), as indicated in the following examples, the zebrafish were transferred to perfusion buffer and the hearts were immediately removed and transferred to RIPA lysis buffer (Sigma-Aldrich), and protease inhibitor cocktail (P8340, Sigma-Aldrich), at a 1:100 dilution). The tissue was homogenized in an ultrasonic homogenizer (Microson, NY, USA) and aliquots of the homogenate were stored at −70° C. until used.
Protein dilution and separation on SDS-PAGE electrophoresis, their transfer to a polyvinylidene fluoride membrane were carried out. The membranes were incubated for 1 hour at room temperature with one of the specific antibodies against Phospho-p44/42 MAPK (Erk1/2) (Thr202/Tyr204), Rabbit mAb #4370 (Cell signaling) or Phospho-Akt (Ser473) (193H12), Rabbit mAb #4058 (Cell signaling), at a 1:1000 dilution in TBS containing 0.1% Tween. The membranes were washed with TBS containing 0.1% Tween and exposed to horseradish peroxidase-conjugated secondary goat anti-rabbit IgG antibody (1:50,000). The membranes were stripped prior to their exposure to a different antibody. Detection was carried out with the aid of a Luminata™ Crescendo Western HRP Substrates, according to the manufacturer's instructions.

[6] = test system: ERK; experiment: ERK phosphorylation in adult zebrafish heart (Western blot); type: in vivo; conditions: wt adult zebrafish, 1 μM in swimming media, 5 minutes
Experimental: as §2
Protein dilution and separation on SDS-PAGE electrophoresis, their transfer to a polyvinylidene fluoride membrane were carried out. […] The membranes were washed with TBS containing 0.1% Tween and exposed to horseradish peroxidase-conjugated secondary goat anti-rabbit IgG antibody (1:50,000). The membranes were stripped prior to their exposure to a different antibody. Detection was carried out with the aid of a Luminata™ Crescendo Western HRP Substrates, according to the manufacturer's instructions.

## NC1(c2ccc(-c3nc4ccn5c(=O)[nH]nc5c4cc3-c3ccccc3)cc2)CCC1 [MK-2206]
[1]
  amplitude of contractility: did not affect the amplitude
  Amplitude: 0.15 ± 0.02
  Contraction Rate (−dv/dt): 2.61 ± 0.74
  Relaxation Rate (+dv/dt): 0.98 ± 0.34
[2]
  Amplitude (Maximal deflection from baseline): 4.8 ± 0.13
  Area (Area under the transient relative to baseline): 2.81 ± 0.19
  Decay slope (−Δ Fluorescence in the linear phase/sec): 4.65 ± 0.54
  Rate: 48 ± 4.8 wave/min
  Rise slope (+Δ Fluorescence in the linear phase/sec): 1.65 ± 0.28
[3]
  CPK: 363.5 ± 88.59 unit/L
  Trop-T: 0.07 ± 0.06 ng/mL
[4]
  Amplitude (Maximal deflection from baseline): 1.85 ± 0.05
  Area (Area under the transient relative to baseline): 2.79 ± 0.23
  Decay slope (−Δ Fluorescence in the linear phase/sec): 1.72 ± 0.22
  Rate: 25 ± 3 wave/min
  Rise slope (+Δ Fluorescence in the linear phase/sec): 0.51 ± 0.04

## C[C@@H]1O[C@@H](O[C@H]2C[C@@H](O)[C@]3(CO)[C@H]4[C@H](O)C[C@]5(C)[C@@H](C6=CC(=O)OC6)CC[C@]5(O)[C@@H]4CC[C@]3(O)C2)[C@H](O)[C@H](O)[C@H]1O [ouabain, 3-(alpha-L-Rhamnopyranosyloxy)-1beta,5beta,11alpha,14,19-pentahydroxy-5beta-card-20(22)-enolide]
[1]
  amplitude of contractility: did not affect the amplitude
  Amplitude: 0.14 ± 0.03
  Contraction Rate (−dv/dt): 2.43 ± 0.84
  Relaxation Rate (+dv/dt): 0.07 ± 0.05
[1]; ouabain in the presence of Akt inhibitor
  increase in the contraction amplitude: 67%
[5]
  increase in Akt phosphorylation in the heart: 100±20.06%
[2]; 200 μM ouabain
  increase in amplitude of the Ca^2+ transients: 27%
  increase in decay slope of the Ca^2+ transients: 86%
  increase in rise slope of the Ca^2+ transients: 61%
[2]
  Amplitude (Maximal deflection from baseline): 6.59 ± 0.71
  Area (Area under the transient relative to baseline): 2.94 ± 0.44
  Decay slope (−Δ Fluorescence in the linear phase/sec): 20 ± 3.51
  Rate: 52 ± 6.8 wave/min
  Rise slope (+Δ Fluorescence in the linear phase/sec): 7.84 ± 2.02
[6]
  increase in ERK phosphorylation in the heart: 130±17.95%
[3]
  CPK: 616.6 ± 197.6 unit/L
  Trop-T: 0.24 ± 0.17 ng/mL
[4]
  Amplitude (Maximal deflection from baseline): 1.67 ± 0.15
  Area (Area under the transient relative to baseline): 2.54 ± 0.56
  Decay slope (−Δ Fluorescence in the linear phase/sec): 1.92 ± 0.46
  Rate: 35 ± 8.4 wave/min
  Rise slope (+Δ Fluorescence in the linear phase/sec): 0.47 ± 0.1
[4]; acc, 200 μM ouabain
  changes in Ca^2+ transients parameters: did not result in any changes in the Ca^2+ transients parameters
[4]; acc, 200 μM ouabain, Akt inhibitor
  changes in Ca^2+ transient parameters in the presence of Akt inhibitor: did not cause any changes in Ca^2+ transient parameters
